Measured values from ChEMBL document CHEMBL1150291, “Discovery of potent, orally bioavailable, selective 5-HT1A/B/D receptor antagonists” (J Med Chem, 2008).

Tests used:
[1] = biological target: T1, 5-hydroxytryptamine receptor 1A (Homo sapiens, UniProt P08908)
T1 sequence (P08908 whole entry): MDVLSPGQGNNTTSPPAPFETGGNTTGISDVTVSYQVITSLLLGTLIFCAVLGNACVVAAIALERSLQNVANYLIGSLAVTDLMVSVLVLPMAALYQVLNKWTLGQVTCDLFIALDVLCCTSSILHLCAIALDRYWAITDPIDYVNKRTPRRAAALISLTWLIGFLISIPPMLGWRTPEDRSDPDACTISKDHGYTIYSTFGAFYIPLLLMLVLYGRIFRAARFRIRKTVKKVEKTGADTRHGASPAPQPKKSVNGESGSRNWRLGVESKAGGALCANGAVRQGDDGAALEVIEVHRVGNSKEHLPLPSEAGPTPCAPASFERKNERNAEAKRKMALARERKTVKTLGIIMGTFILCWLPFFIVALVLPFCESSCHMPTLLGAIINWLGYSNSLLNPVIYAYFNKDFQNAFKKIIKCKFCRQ

[2] = biological target: T1, 5-hydroxytryptamine receptor 1A; remark: listed apart in the source
[3] = biological target: T2, 5-hydroxytryptamine receptor 1B (Homo sapiens, UniProt P28222)
T2 sequence (P28222 whole entry): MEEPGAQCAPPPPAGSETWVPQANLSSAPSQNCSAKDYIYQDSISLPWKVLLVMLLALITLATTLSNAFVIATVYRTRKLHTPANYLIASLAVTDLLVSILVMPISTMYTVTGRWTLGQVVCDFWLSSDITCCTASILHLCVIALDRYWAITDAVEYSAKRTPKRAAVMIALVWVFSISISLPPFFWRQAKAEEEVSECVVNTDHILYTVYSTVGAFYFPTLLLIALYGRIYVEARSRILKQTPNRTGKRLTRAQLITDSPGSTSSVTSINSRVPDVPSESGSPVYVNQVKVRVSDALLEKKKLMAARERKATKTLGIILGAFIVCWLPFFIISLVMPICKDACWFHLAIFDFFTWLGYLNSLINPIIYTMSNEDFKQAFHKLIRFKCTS

[4] = biological target: T3, 5-hydroxytryptamine receptor 1D (Homo sapiens, UniProt P28221)
T3 sequence (P28221 whole entry): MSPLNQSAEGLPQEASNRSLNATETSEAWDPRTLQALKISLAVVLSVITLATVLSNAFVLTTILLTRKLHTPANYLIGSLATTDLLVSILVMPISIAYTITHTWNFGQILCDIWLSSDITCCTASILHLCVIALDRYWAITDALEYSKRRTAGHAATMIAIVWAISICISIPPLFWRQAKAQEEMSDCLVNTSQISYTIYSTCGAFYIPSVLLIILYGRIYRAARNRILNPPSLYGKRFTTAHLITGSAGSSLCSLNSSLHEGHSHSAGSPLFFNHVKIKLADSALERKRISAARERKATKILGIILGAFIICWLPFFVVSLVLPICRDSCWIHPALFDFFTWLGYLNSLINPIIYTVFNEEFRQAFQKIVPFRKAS

[5] = biological target: Sodium-dependent serotonin transporter (Rattus norvegicus, UniProt P31652)
Sequence of Sodium-dependent serotonin transporter (Rattus norvegicus, UniProt P31652) (P31652 whole entry): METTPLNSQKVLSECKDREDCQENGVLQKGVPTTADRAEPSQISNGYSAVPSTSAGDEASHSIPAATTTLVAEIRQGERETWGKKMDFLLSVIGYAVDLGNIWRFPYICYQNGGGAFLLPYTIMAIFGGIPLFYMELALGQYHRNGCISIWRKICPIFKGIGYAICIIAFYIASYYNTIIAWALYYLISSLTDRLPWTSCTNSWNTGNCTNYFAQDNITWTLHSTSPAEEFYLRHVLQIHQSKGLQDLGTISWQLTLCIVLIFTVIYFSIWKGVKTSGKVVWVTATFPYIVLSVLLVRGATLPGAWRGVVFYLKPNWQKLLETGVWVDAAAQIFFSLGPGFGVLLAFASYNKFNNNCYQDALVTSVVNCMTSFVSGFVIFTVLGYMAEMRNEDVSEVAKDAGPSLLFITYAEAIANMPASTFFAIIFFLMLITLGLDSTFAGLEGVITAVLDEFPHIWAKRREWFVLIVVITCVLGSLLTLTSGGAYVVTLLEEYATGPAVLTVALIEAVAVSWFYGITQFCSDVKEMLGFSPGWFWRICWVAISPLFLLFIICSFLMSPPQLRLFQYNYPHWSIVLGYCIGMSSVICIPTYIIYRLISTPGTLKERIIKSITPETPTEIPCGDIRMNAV
Description: Inhibition of [3H]5HT uptake at SERT in rat cortical synaptosomes

[6] = Clearance in rat at 1 mg/kg, iv; type: ADME, organism-based; set-up: dose 1 mg/kg, route intravenous; settings: in vivo
[7] = Half life in rat at 1 mg/kg, iv; type: ADME, organism-based; set-up: dose 1 mg/kg, route intravenous; settings: in vivo
[8] = Ratio of drug level in brain to blood in rat at 3 mg/kg, po; type: ADME, organism-based; set-up: dose 3 mg/kg, route oral; settings: read-out: BBR
[9] = Volume of distribution at steady state in rat at 1 mg/kg, iv; type: ADME, organism-based; set-up: dose 1 mg/kg, route intravenous; settings: in vivo, read-out: Vdss
[10] = Cmax in rat brain at 3 mg/kg, po; type: ADME, organism-based; set-up: dose 3 mg/kg, route oral
[11] = biological target: T2, 5-hydroxytryptamine receptor 1B; test: Displacement of [3H]5HT from human recombinant 5HT1B receptor relative to control
[12] = biological target: T3, 5-hydroxytryptamine receptor 1D; test: Displacement of [3H]5HT from human recombinant 5HT1D receptor relative to control
[13] = biological target: 5-hydroxytryptamine receptor 1E (Homo sapiens, UniProt P28566); test: Displacement of radioligand from human cloned 5HT1E receptor
Sequence of 5-hydroxytryptamine receptor 1E (P28566 whole entry): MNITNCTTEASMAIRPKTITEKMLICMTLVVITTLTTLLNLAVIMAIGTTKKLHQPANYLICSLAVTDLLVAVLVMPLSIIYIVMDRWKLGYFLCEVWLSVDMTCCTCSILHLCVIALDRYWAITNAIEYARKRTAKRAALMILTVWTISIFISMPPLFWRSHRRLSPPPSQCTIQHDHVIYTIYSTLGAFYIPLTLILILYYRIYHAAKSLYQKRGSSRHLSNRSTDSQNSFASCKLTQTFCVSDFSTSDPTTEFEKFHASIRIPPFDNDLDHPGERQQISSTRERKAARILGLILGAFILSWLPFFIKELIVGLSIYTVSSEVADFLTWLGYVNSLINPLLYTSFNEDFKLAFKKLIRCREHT

[14] = biological target: T4, 5-hydroxytryptamine receptor 1F (Homo sapiens, UniProt P30939); test: Displacement of radioligand from human cloned 5HT1F receptor
T4 sequence (P30939 whole entry): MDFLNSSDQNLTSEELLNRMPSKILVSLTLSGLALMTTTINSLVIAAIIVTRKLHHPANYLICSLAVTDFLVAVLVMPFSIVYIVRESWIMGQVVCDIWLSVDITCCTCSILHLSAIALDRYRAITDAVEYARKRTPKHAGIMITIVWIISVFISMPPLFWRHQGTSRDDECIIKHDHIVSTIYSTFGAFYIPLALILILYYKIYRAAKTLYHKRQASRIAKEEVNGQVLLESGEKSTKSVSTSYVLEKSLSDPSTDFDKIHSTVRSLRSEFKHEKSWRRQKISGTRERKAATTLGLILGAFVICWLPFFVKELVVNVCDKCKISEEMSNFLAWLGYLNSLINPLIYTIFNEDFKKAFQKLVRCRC

[15] = biological target: 5-hydroxytryptamine receptor 2A (Homo sapiens, UniProt P28223); test: Displacement of radioligand from human cloned 5HT2A receptor
Sequence of 5-hydroxytryptamine receptor 2A (P28223 whole entry): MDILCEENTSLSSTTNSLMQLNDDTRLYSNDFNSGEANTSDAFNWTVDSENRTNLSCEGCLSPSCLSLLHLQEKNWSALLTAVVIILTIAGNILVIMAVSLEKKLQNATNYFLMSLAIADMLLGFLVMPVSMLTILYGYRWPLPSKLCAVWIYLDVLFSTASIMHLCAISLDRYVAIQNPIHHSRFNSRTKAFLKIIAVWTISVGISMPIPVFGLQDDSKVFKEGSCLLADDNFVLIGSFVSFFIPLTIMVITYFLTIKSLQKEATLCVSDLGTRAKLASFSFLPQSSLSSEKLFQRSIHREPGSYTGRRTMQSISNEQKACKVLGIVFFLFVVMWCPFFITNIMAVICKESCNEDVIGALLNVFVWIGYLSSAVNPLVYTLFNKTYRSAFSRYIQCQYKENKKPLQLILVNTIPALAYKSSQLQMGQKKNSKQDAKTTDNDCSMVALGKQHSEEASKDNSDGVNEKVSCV

[16] = biological target: 5-hydroxytryptamine receptor 2B (Homo sapiens, UniProt P41595); test: Displacement of radioligand from human cloned 5HT2B receptor
Sequence of 5-hydroxytryptamine receptor 2B (P41595 whole entry): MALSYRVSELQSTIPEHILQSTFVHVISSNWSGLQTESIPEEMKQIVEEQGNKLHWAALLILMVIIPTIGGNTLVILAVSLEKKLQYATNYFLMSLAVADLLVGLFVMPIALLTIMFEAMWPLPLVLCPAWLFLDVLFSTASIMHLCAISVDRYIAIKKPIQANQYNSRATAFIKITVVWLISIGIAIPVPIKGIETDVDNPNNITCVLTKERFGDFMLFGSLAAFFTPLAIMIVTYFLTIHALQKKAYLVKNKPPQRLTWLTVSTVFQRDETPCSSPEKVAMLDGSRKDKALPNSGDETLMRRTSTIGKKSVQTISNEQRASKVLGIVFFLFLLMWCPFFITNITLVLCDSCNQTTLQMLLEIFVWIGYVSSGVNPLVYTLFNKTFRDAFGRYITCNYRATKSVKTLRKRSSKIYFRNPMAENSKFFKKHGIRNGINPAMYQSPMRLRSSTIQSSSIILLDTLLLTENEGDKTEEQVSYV

[17] = biological target: T5, 5-hydroxytryptamine receptor 2C (Homo sapiens, UniProt P28335); test: Displacement of radioligand from human cloned 5HT2C receptor
T5 sequence (P28335 whole entry): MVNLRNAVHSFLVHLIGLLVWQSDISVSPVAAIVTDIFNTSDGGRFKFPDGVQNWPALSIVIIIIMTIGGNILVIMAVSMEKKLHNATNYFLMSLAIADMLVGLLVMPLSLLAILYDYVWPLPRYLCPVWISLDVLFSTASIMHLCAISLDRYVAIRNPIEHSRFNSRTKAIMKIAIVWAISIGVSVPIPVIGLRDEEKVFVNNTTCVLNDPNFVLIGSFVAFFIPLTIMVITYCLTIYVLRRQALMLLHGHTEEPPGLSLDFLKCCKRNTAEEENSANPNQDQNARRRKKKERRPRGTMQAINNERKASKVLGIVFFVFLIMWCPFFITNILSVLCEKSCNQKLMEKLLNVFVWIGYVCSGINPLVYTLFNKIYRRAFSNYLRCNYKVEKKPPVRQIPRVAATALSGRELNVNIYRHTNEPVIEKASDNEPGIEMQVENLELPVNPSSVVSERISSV

[18] = biological target: 5-hydroxytryptamine receptor 4 (Homo sapiens, UniProt Q13639); test: Displacement of radioligand from human cloned 5HT4 receptor
Sequence of 5-hydroxytryptamine receptor 4 (Q13639 whole entry): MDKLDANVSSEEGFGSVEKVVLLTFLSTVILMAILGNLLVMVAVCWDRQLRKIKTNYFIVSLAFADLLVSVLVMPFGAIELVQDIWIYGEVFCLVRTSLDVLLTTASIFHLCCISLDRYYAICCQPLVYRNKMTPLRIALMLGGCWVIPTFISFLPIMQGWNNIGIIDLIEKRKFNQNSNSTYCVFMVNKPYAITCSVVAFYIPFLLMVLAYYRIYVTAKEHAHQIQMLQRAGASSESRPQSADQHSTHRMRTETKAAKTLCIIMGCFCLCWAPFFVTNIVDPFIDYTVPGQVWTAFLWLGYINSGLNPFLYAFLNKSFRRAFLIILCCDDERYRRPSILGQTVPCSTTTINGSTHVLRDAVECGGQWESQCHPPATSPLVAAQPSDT

[19] = biological target: 5-hydroxytryptamine receptor 6 (Homo sapiens, UniProt P50406); test: Displacement of radioligand from human cloned 5HT6 receptor
Sequence of 5-hydroxytryptamine receptor 6 (P50406 whole entry): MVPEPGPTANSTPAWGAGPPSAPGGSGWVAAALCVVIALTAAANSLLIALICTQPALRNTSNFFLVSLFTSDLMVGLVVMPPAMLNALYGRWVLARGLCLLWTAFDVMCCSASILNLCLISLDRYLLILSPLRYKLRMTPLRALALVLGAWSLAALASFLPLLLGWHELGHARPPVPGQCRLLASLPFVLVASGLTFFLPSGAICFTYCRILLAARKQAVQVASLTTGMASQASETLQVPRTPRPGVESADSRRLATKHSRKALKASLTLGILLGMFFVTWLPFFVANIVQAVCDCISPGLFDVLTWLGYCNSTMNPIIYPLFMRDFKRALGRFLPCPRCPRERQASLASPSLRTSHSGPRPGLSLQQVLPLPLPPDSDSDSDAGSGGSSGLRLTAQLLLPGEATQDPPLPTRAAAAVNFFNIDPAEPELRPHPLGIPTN

[20] = biological target: 5-hydroxytryptamine receptor 7 (Homo sapiens, UniProt P34969); test: Displacement of radioligand from human cloned 5HT7 receptor
Sequence of 5-hydroxytryptamine receptor 7 (P34969 whole entry): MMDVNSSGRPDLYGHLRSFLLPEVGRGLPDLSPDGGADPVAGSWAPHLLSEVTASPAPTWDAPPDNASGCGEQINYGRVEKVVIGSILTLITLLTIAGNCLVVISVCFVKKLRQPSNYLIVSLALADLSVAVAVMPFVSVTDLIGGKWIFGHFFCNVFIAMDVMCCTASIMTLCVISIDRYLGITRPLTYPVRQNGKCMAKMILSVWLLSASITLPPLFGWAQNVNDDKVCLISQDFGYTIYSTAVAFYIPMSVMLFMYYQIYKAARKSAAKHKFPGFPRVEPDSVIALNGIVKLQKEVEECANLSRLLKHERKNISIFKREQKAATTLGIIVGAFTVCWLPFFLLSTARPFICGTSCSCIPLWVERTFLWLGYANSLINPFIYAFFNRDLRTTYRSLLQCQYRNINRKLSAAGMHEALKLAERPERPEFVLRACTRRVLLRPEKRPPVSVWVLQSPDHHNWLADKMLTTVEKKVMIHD

[21] = biological target: Sodium-dependent serotonin transporter (Homo sapiens, UniProt P31645); test: Displacement of radioligand from human cloned SERT
[22] = biological target: T6, Alpha-1B adrenergic receptor (Homo sapiens, UniProt P35368); test: Displacement of radioligand from human cloned adrenergic Alpha-1B receptor
T6 sequence (P35368 whole entry): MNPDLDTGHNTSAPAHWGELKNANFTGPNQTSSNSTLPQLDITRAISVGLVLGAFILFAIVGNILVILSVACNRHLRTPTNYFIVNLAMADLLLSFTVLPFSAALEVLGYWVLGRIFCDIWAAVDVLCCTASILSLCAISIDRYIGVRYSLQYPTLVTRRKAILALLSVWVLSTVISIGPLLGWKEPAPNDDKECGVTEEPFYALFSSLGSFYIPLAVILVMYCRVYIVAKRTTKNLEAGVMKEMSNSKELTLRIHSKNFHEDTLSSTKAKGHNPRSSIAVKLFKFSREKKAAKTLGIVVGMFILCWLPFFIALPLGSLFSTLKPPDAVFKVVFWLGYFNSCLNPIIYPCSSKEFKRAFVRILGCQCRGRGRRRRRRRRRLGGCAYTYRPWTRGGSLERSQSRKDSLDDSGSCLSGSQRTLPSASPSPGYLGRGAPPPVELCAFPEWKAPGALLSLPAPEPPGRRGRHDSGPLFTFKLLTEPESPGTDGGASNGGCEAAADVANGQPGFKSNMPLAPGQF

[23] = biological target: Beta-2 adrenergic receptor (Homo sapiens, UniProt P07550); test: Displacement of radioligand from human cloned adrenergic beta2 receptor
Sequence of Beta-2 adrenergic receptor (P07550 whole entry): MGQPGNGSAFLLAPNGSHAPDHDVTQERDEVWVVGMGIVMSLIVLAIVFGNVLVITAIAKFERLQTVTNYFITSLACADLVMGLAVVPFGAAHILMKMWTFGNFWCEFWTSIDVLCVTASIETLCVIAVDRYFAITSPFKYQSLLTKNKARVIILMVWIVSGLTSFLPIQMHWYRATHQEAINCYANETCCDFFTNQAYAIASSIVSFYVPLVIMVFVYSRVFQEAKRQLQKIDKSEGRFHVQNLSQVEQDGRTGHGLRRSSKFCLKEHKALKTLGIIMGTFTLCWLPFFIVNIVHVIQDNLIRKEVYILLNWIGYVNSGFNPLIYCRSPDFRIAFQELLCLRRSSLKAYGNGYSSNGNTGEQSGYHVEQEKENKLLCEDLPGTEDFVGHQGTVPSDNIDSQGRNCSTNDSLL

[24] = biological target: 5-hydroxytryptamine receptor 5A (Homo sapiens, UniProt P47898)
Description: Displacement of radioligand from human cloned 5HT5A receptor

D(2) dopamine receptor = D(2) dopamine receptor (Homo sapiens, UniProt P14416)
Sequence of D(2) dopamine receptor (P14416 whole entry): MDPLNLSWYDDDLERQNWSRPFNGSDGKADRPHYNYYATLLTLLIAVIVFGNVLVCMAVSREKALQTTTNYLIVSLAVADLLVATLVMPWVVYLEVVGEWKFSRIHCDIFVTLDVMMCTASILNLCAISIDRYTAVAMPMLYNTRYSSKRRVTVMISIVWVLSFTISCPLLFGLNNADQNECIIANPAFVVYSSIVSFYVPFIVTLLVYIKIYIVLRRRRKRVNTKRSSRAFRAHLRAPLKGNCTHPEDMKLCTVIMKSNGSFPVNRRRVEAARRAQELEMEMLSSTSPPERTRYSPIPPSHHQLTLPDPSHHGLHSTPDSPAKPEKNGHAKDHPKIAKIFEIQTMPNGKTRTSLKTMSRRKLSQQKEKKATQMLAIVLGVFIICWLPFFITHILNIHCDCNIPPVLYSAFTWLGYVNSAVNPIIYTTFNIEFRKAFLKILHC
Description: Displacement of radioligand from human cloned dopamine D2 receptor

Rattus norvegicus = test: Reversal of SKF-99101-induced increase in seizure threshold in orally dosed rat by electroshock threshold test; type: functional

Structure (SMILES)	Ki [2]	Ki [3]	Ki [4]	Ki [5]	clearance [6]	half-life [7]	Vd [9]	Cmax [10]	Intrinsic activity [11]	Intrinsic activity [12]	also measured
COc1ccc(CN2CCN(CCOc3cccc4nc(C)ccc34)CC2)cc1	50.1 nM	501 nM	12.6 nM	398 nM							Ki [1]: 5.01 nM
CC(=O)N(C)c1cccc(CN2CCN(CCOc3cccc4nc(C)ccc34)CC2)c1	251 nM	50.1 nM	0.316 nM	1000 nM							
Cc1ccc2c(OCCN3CCC(Cc4cccc(N(C)S(C)(=O)=O)c4)CC3)cccc2n1	12.6 nM	12.6 nM	1.58 nM	1000 nM					0	0.5	
Cc1ccc2c(OCCN3CCC(Cc4cccc(NC(=O)C(C)C)c4)CC3)cccc2n1	6.31 nM	50.1 nM	1.26 nM	501 nM	45 mL/min/kg	54 min	1.8 L/kg	175 ng/g	0.3	0.4	Kp [8]: 2.3
CC(=O)Nc1ccc(CN2CCN(CCOc3cccc4nc(C)ccc34)CC2)cc1		1260 nM	200 nM	1580 nM							Ki [1]: 158 nM
Cc1nc(-c2ccc(-c3ccc(C(=O)N4CCc5cc6c(cc54)C4(CCN(C)CC4)CO6)cc3)c(C)c2)no1 [SB-224289]											ED50 (Rattus norvegicus; po): 1 mg/kg
Cc1ccc2c(OCCN3CCC(Cc4cccc(NS(=O)(=O)C(C)C)c4)CC3)cccc2n1	2.51 nM	1.26 nM	0.398 nM	398 nM					0.3	0.4	
Cc1ccc2c(OCCN3CCC(Cc4cccc(NS(C)(=O)=O)c4)CC3)cccc2n1	2.51 nM	2 nM	0.501 nM	1000 nM	38 mL/min/kg	36 min	1.6 L/kg	346 ng/g	0.3		Kp [8]: 0.2; Activity (Rattus norvegicus): Dose-dependent effect; Ki [13]: 2510 nM; Ki [14]: 501 nM; Ki [15]: 2510 nM; Ki [16]: 2000 nM; Ki [17]: > 1000 nM; Ki [18]: > 10000 nM; Ki [19]: > 10000 nM; Ki [20]: 20 nM; Ki [21]: 1580 nM; Ki [22]: 200 nM; Ki [23]: 501 nM; Ki [24]: 1260 nM; Ki (D(2) dopamine receptor): 63.1 nM
COc1ccc(CC2CCN(CCOc3cccc4nc(C)ccc34)CC2)cc1NS(C)(=O)=O	126 nM	39.8 nM	6.31 nM	631 nM							

Further compounds by falling Ki [3], results first:

Ki [2]	Ki [3]	Ki [4]	Ki [5]	clearance [6]	half-life [7]	Vd [9]	Cmax [10]	Intrinsic activity [11]	Intrinsic activity [12]	Structure (SMILES)	also measured
1260 nM	1580 nM	5.01 nM	10000 nM							CC(=O)Nc1ccccc1CN1CCN(CCOc2cccc3nc(C)ccc23)CC1	
200 nM	251 nM	1 nM	794 nM							Cc1ccc2c(OCCN3CCN(Cc4ccccc4)CC3)cccc2n1	Ki [1]: 25.1 nM
	158 nM	2.51 nM	631 nM							COc1cccc(CN2CCN(CCOc3cccc4nc(C)ccc34)CC2)c1	Ki [1]: 12.6 nM
5.01 nM	100 nM	1.58 nM	794 nM	34 mL/min/kg	66 min	1.9 L/kg	234 ng/g	0.3	0.6	CCN(C(C)=O)c1cccc(CC2CCN(CCOc3cccc4nc(C)ccc34)CC2)c1	
25.1 nM	39.8 nM	1.26 nM	79.4 nM	37 mL/min/kg	72 min	2.2 L/kg	190 ng/g	0.3	0.6	CC(=O)N(C)c1cccc(CC2CCN(CCOc3cccc4nc(C)ccc34)CC2)c1	
31.6 nM	25.1 nM	0.251 nM	251 nM					0.2	0.3	CCNC(=O)Nc1cccc(CC2CCN(CCOc3cccc4nc(C)ccc34)CC2)c1	
25.1 nM	20 nM	0.501 nM	501 nM	47 mL/min/kg	36 min	1.2 L/kg	221 ng/g	0.3	0.5	CC(=O)Nc1cccc(CC2CCN(CCOc3cccc4nc(C)ccc34)CC2)c1	Kp [8]: 1.1
200 nM	20 nM	0.501 nM	1260 nM							CC(=O)Nc1cccc(CN2CCN(CCOc3cccc4nc(C)ccc34)CC2)c1	Ki [1]: 2 nM
6.31 nM	20 nM	2 nM	200 nM	35 mL/min/kg	78 min	1.5 L/kg	410 ng/g	0.4	0.5	Cc1ccc2c(OCCN3CCC(Cc4cccc(N5CCCC5=O)c4)CC3)cccc2n1	Kp [8]: 1.2
25.1 nM	15.8 nM	0.631 nM	794 nM					0.3	0.3	CCC(=O)Nc1cccc(CC2CCN(CCOc3cccc4nc(C)ccc34)CC2)c1	
7.94 nM	12.6 nM	1.58 nM	794 nM	39 mL/min/kg	54 min	0.9 L/kg	287 ng/g	0.5	0.4	Cc1ccc2c(OCCN3CCC(Cc4cccc(N5CCCS5(=O)=O)c4)CC3)cccc2n1	Kp [8]: 0.9; Ki [13]: > 10000 nM; Ki [14]: 1000 nM; Ki [15]: > 6310 nM; Ki [16]: > 1000 nM; Ki [17]: > 3980 nM; Ki [18]: 7940 nM; Ki [19]: 1580 nM; Ki [20]: 15.8 nM; Ki [21]: 398 nM; Ki [22]: 158 nM; Ki [23]: 1580 nM; Ki [24]: 1580 nM; Ki (D(2) dopamine receptor): 501 nM
15.8 nM	6.31 nM	1 nM	398 nM					0.2	0.4	Cc1ccc2c(OCCN3CCC(Cc4cccc(NC(=O)CN(C)C)c4)CC3)cccc2n1	
